Results on 8 compounds are retold here after paper PMC9785863, “Thioether and Ether Furofuran Lignans: Semisynthesis, Reaction Mechanism, and Inhibitory Effect against α-Glucosidase and Free Radicals” (Molecules, 2022).

The target of assay [1] is T1, rat intestinal maltase.
T1 construct: gene Mgam; native, crude extract of rat intestinal acetone powder (Sigma), not purified; maltose-hydrolysing activity, shared by maltase-glucoamylase and sucrase-isomaltase
The assay can be described thus: maltose hydrolysis, glucose assay kit, absorbance at […] nm. The class given is biochemical. Conditions: maltose (2 mM stock), 0.1 M phosphate pH 6.9, 37 °C, 10 min; read-out: α-Glucosidase Inhibitory Effect (IC50, mM) ^a / Maltase.

Assay [2] concerns the target T1, rat intestinal maltase. Description: maltose hydrolysis, glucose assay kit, Lineweaver-Burk with secondary replots. The class given is biochemical. Conditions: mixed inhibition; maltose 0.5-8 mM; pH 6.9, 37 °C. The text has this:
maltose hydrolysis, glucose assay kit, Lineweaver-Burk with secondary replots on rat intestinal maltase

With `CCCCCCCCS[C@H]1OC[C@H]2[C@@H]1CO[C@@H]2c1ccc2c(c1)OCO2` [2α-7a], on rat intestinal maltase [1], the IC50 is more than 30 mM.

Regarding `OCCCCCCS[C@H]1OC[C@H]2[C@@H]1CO[C@@H]2c1ccc2c(c1)OCO2` [2α-7b], the IC50 at rat intestinal maltase [1] was more than 30 mM. The same measure, in the same setting: to `c1cc2c(cc1[C@H]1OC[C@H]3[C@@H]1CO[C@@H]3SC1CCCCC1)OCO2` [2α-7c] belongs more than 30 mM; to `Oc1ccc(S[C@H]2OC[C@H]3[C@@H]2CO[C@@H]3c2ccc3c(c2)OCO3)cc1` [2α-7f], 14.7 ± 1 mM. As a reminder, the Ki is a measure of affinity in units of concentration, obtained from inhibition or displacement. Regarding `CC(C)(C)c1cc(SC2OCC3C(c4ccc5c(c4)OCO5)OCC23)cc(C(C)(C)C)c1O` (stereo not drawn) [2α-7o], at rat intestinal maltase [2], the Ki is 0.03 mM. Moreover, the IC50 at rat intestinal maltase [1] turned out to be 11.8 ± 0.3 mM. On to `CCCCCCCCO[C@H]1OC[C@H]2[C@@H]1CO[C@@H]2c1ccc2c(c1)OCO2` [2α-9b], for which the IC50 on rat intestinal maltase [1] was more than 30 mM. On the same count and under the same terms, next, `Oc1ccc(S[C@@H]2OC[C@H]3[C@@H]2CO[C@@H]3c2ccc3c(c2)OCO3)cc1` [2β-7f]: 14.2 ± 0.8 mM; `C[C@H]1O[C@H](O[C@H]2[C@H](O)[C@@H](O)[C@@H](O[C@H]3[C@H](O)[C@@H](O)C(O)O[C@@H]3CO)O[C@@H]2CO)[C@H](O)[C@@H](O)[C@@H]1N[C@H]1C=C(CO)[C@@H](O)[C@H](O)[C@H]1O` (stereo partly drawn) [acarbose, reference compound]: 1.4 ± 0.2 mM.
